The source of these data is ChEMBL document CHEMBL1122087, “Computer graphics in drug design: molecular modeling of thyroid hormone-prealbumin interactions” (J Med Chem, 1982).

The target in one assay is Transthyretin (Homo sapiens) (UniProt P02766). Description: Ability to displace L-[125I]thyoxine from the high affinity prealbumin binding site was expressed as ratio of its apparent association constant to that of L-thyroxine.
In the case of `NC(Cc1cc(I)c(Oc2cccc3ccc(O)cc23)c(I)c1)C(=O)O` (configuration not stated), the Ka(T4) worked out at 0.7%.

The target is the same in another assay. The experiment in a line: Ability to displace L-[125I]thyoxine from the high affinity prealbumin binding site was expressed as ratio of its apparent association constant to that of DL-thyroxine.
For the molecule `NC(Cc1cc(I)c(Oc2ccc(O)c(Br)c2)c(I)c1)C(=O)O` (configuration not stated), the Ka(T4) amounted to 1.6%.

`NC(Cc1cc(I)c(Oc2ccc(O)c3ccccc23)c(I)c1)C(=O)O` (configuration not stated): the Ka(T4) worked out at 1.6%.

As to `NC(Cc1cc(I)c(Oc2cccc3c(O)cccc23)c(I)c1)C(=O)O` (configuration not stated), the Ka(T4) turned out to be 6.3%.

As for `NC(Cc1cc(I)c(Oc2ccc(O)cc2)c(I)c1)C(=O)O` (configuration not stated), the Ka(T4) was found to be 0.3%.

As for `NC(Cc1cc(I)c(Oc2cc(Br)c(O)c(Br)c2)c(I)c1)C(=O)O` (configuration not stated), the Ka(T4) came to 8.6%.

On to `NC(Cc1cc(I)c(Oc2cc(Br)c(O)c3ccccc23)c(I)c1)C(=O)O` (configuration not stated), for which the Ka(T4) amounted to 28.7%.
